Tested on: AGS cells (KRAS^G12D)
Assay: Detection of cell proliferation in vitro by MTT/MTS method (cell activity experiment)
Assay type: cell-based
Conditions: Homo sapiens, AGS, 72 h, AGS cells; MTT/MTS; 3 days of drug treatment; read-out: AGS IC50
How it was run: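 After 3-day compound exposure (final DMSO 0.5%), viability of AGS (KRAS G12D) cells, plated 1000/well one day before dosing, was measured at 490 nm following 4 h MTT or MTS incubation. IC50 was fitted from dose–effect curves relative to DMSO-treated wells.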

IC50 [nM]	SMILES
> 2500	Oc1cc(-c2ccc3c(N4C[C@H]5CC[C@@H](C4)C5(F)F)nc(OC[C@@]45CCCN4C[C@H](F)C5)nc3c2F)c2c(F)c(F)ccc2c1 [Example 122, 4-(4-((1R,5S)-8,8-difluoro-3-azabicyclo [3.2.1]octan-3-yl)-8-fluoro-2-(((2R,7aS)-2-fluorotetrahydro-1H-pyrrolizin-7a(5H)-yl)methoxy)quinazolin-7-yl)-5,6-difluoronaphthalen-2-ol]
980	C#Cc1c(F)ccc2cc(O)cc(-c3ccc4c(N5CC(C)(NC)C5)nc(OC[C@@]56CCCN5C[C@H](F)C6)nc4c3F)c12 [Example 218, 5-ethynyl-6-fluoro-4-(8-fluoro-2-(((2R,7aS)-2-fluorotetrahydro-1H-pyrrolizin-7a(5H)-yl)methoxy)-4-(3-methyl-3-(methylamino)azetidin-1-yl)quinazolin-7-yl)naphthalen-2-ol]
> 2500	CCc1c(F)ccc2cc(O)cc(-c3ncc4c(N5CC6CCC(C5)C6F)nc(OC[C@@]56CCCN5C[C@H](F)C6)nc4c3F)c12 (stereo partly drawn) [Example 35, 5-ethyl-6-fluoro-4-(8-fluoro-4-((1R,5S,8R)-8-fluoro-3-azabicyclo [3.2.1]octan-3-yl)-2-(((2R,7aS)-- fluorotetrahydro-1H-pyrrolizin-7a(5H)-yl)methoxy)pyrido[4,3-d]pyrimidin-7-yl) naphthalen-2-ol]
> 2500	CCc1c(F)ccc2cc(O)cc(-c3ccc4c(N5C[C@H]6CC[C@@H](C5)C6(F)F)nc(OC[C@@]56CCCN5C[C@H](F)C6)nc4c3F)c12 [Example 120, 4-(4-((1R,5S)-8,8-difluoro-3-azabicyclo [3.2.1]octan-3-yl)-8-fluoro-2-(((2R,7aS)-2-fluorotetrahydro-1H-pyrrolizin-7a(5H)-yl)methoxy)quinazolin-7-yl)-5-ethyl-6-fluoronaphthalen-2-ol]

SMILES	IC50 [nM]
C#Cc1c(F)ccc2cc(O)cc(C3=C(F)c4nc(OC[C@@]56CCCN5C[C@H](F)C6)nc(N5C[C@H]6CC[C@@H](C5)N6)c4C4=NCCN43)c12 [Example 402, 4-(10-((1R,5S)-3,8-diazabicyclo[3.2.1]octan-3-yl)-6-fluoro-8-(((2R,7aS)-2-fluorotetrahydro-1H-pyrrolizin-7a(5H)-yl)methoxy)-2,3-dihydroimidazo[1′,2′:1,2]pyrido[4,3-d]pyrimidin-5-yl)-5-ethynyl-6-fluoronaphthalen-2-ol]	56
C#Cc1c(F)ccc2cc(O)cc(N3CCc4c(nc(OC[C@]56CCCN5[C@@H](COC(=O)N(C)C)CC6)nc4N4C[C@H]5CC[C@@H](C4)N5)C3)c12 [Example 209, ((3R,7aR)-7a-(((4-((1R,5S)-3,8-diazabicyclo[3.2.1]octan-3-yl)-7-(8-ethynyl-7-fluoro-3-hydroxynaphthalen-1-yl)-5,6,7,8-tetrahydropyrido[3,4-d]pyrimidin-2-yl)oxy)methyl)hexahydro-1H-pyrrolizin-3-yl)methyl dimethylcarbamate]	35
C#Cc1c(F)ccc2cc(O)cc(-c3c(Cl)cc4c(N5C[C@H]6CC[C@@H](C5)N6)nc(OC[C@@]56CCCN5C[C@H](F)C6)nc4c3OC3CC3)c12 [Example 330, 4-(4-((1R,5S)-3,8-diazabicyclo[3.2.1]octan-3-yl)-6-chloro-8-cyclopropoxy-2-(((2R,7aS)-2-fluorotetrahydro-1H-pyrrolizin-7a(5H)-yl)methoxy)quinazolin-7-yl)-5-ethynyl-6-fluoronaphthalen-2-ol]	195

From patent US20240300980A1, “HETEROCYCLIC COMPOUNDS AS KRAS INHIBITOR, AND PREPARATION THEREFOR AND USE THEREOF IN TREATMENT” (SHANGHAI KECHOW PHARMA, INC., priority 2021, published 2024)
